Results: US20240277742A1, “TRANSLATION INHIBITOR WITHOUT OCCUPYING RIBOSOME RESOURCES AS ANTI-TUMOR DRUG” (CHI BIOTECH CO., LTD., priority 2022, published 2024)

What was measured:
ribosomes = assay: Sucrose density ultracentrifugation (polysome profiling) of drug-treated cell lysates; assay type: cell-based; conditions: methyl aurintricarboxylate 50 μg/mL; Harringtonin 10 μg/mL; Kasugamycin 10 μg/mL; Pateamine A 2 μM; Hippuristanol 1 μM
Procedure: Example 2 Proof that methyl aurintricarboxylate, Kasugamycin and Hippuristanol are all translation inhibitors without occupying ribosome resources Using methods well known to those skilled in the art, sucrose density ultracentrifugation (polysome profiling) was carried out to measure polysomes. Ultracentrifugation was performed on normal cell lysates and drug-treated cell lysates at 15-50% sucrose density gradient, the solution was pumped out slowly, and OD260 nm (260 nm Optical Density) was measured. In FIG. 2A, the black line, gray solid line and gray dashed line are the experimental curves of normal cells, cells treated with methyl aurintricarboxylate (concentration 50 μg/mL) and cells treated with Harringtonin (concentration 10 μg/mL) respectively. In FIG. 2B, the gray solid line, gray dashed line, and black dotted line are the experimental curves of cells treated with Kasugamycin (concentration 10 μg/mL), Pateamine A (concentration 2 μM), and Hippuristanol (concentration 1 μM), respectively. The peak heights of the curves are related to concentration.

lung cancer A549 cells = conditions: cisplatin concentration adopted (50 μM), from reported procedure; cited from earlier work
[1] = test system: human breast cancer cell line MDA-MB-468; assay: Transwell invasion assay; assay type: cell-based; conditions: MDA-MB-468, 50 nM, 24 h
Procedure: (§1) The human breast cancer cell line MDA-MB-468 was incubated and 50 nM Hippuristanol was then added. The well-known Transwell migration and invasion assays were carried out. 100,000 cells were added to the Transwell chamber, migration/invasion was carried out for 24 h, and crystal violet staining was performed.

[2] = test system: human breast cancer cell line MDA-MB-468; assay: Transwell migration assay; assay type: cell-based; conditions: MDA-MB-468, 50 nM, 24 h
Procedure: as §1

A549 lung cancer cells = assay: Nude-mouse lung cancer xenograft model, tumor diameter; assay type: in vivo, nude mice; conditions: gavage, daily dose 10 mg/kg, days 1, 3, 5
Procedure: Using techniques well known in the art, the tumor inhibition assay of Hippuristanol was carried out on a nude-mouse xenograft model. Nude mice were subcutaneously injected with A549 lung cancer cells. After the tumors formed, Hippuristanol was administered by gavage once at a daily dose of 10 mg/kg. On days 1, 3, and 5, the tumor diameters of the nude mice were measured in vivo.

H1299 lung cancer cells = assay: as above; assay type: in vivo, nude mice; conditions: gavage once, 10 μg/kg, days 1, 3, 5
Procedure: Using techniques well known in the art, the tumor inhibition assay of Kasugamycin was carried out on a nude-mouse xenograft model. Nude mice were subcutaneously injected with H1299 lung cancer cells. After the tumors formed, kasugamycin was administered (by gavage) once at a dose of 10 μg/kg. On days 1, 3, and 5, the tumor diameters of the nude mice were measured in vivo.

[3] = test system: human breast cancer cell line MDA-MB-468; assay: Cell proliferation by sulforhodamine B assay; assay type: cell-based; conditions: MDA-MB-468, 1 mg/L
Procedure: The human breast cancer cell line MDA-MB-468 was cultured, 1 mg/L Kasugamycin was then added, and cell proliferation was measured by the sulforhodamine B assay well known in the art (see Qin et al., BAPI promotes breast cancer cell proliferation and metastasis by deubiquitinating KLF5, Nature Communications 6:8471).

[4] = test system: cancer cells (A549 and H1299); assay: Cell apoptosis, onset concentration comparison under the same conditions; assay type: cell-based; conditions: same experimental conditions as methyl aurintricarboxylate
Procedure: (§2) Cell migration, cell invasion, cell apoptosis, cell colony formation and cytotoxicity experiments were carried out using methods well known to those skilled in the art. […] (3) Cell apoptosis: Cells were fluorescently labeled using Annexin V, and the occurrence of cell apoptosis was tested under a fluorescence microscopy or on a flow cytometer. […] As the concentration of methyl aurintricarboxylate increases (final concentration: 10 μg/mL, 20 μg/mL, 40 μg/mL), the percentage of apoptosis of cancer cells increases. The percentage of apoptosis of cancer cells is positively correlated with the concentration of methyl aurintricarboxylate. Under the same experimental conditions, the onset concentration of aurintricarboxylic acid (0.25-0.5 mg/mL) is 12.5 to 25 times that of methyl aurintricarboxylate.

[5] = test system: HCCLM3 liver cancer cells; assay: Cell proliferation by CCK-8; assay type: cell-based; conditions: HCCLM3, 50 μg/mL or above, dose-effect relationship
Procedure: (§3) The Chinese liver cancer cell lines HCCLM3 and MHCC97H were taken, and cell proliferation was tested with the addition of methyl aurintricarboxylate. […] (b) A methyl aurintricarboxylate solution was added to the culture medium and the final concentrations of methyl aurintricarboxylate reached 10 μg/mL, 20 μg/mL, 50 μg/mL, 80 μg/mL and 120 μg/mL, respectively. The cells were further incubated for […] before sampling. (c) Cell proliferation was tested by CCK-8 (Cell Counting Kit-8).

[6] = test system: MHCC97H liver cancer cells; assay: Cell proliferation by CCK-8; assay type: cell-based; conditions: 50 μg/mL or above, dose-effect relationship
Procedure: as §3

HBE cells [7] = assay: Transwell migration assay; assay type: cell-based, human; conditions: 20 μg/mL, vs blank control
Procedure: (§4) Cell migration, cell invasion, cell apoptosis, cell colony formation and cytotoxicity experiments were carried out using methods well known to those skilled in the art. […] (1) Cell migration: The Transwell migration assay was carried out to test the migration ability of HBE, A549 and H1299 cells passing pores before and after treatment. The final concentration of methyl aurintricarboxylate was 20 μg/mL.

HBE cells [8] = assay: Cell apoptosis, Annexin V labelling; assay type: cell-based, human; conditions: HBE, 10, 20, 40 μg/mL
Procedure: as §2

H1299 cells [9] = assay: Transwell invasion assay; assay type: cell-based; conditions: H1299, 20 μg/mL, vs blank control
Procedure: (§5) Cell migration, cell invasion, cell apoptosis, cell colony formation and cytotoxicity experiments were carried out using methods well known to those skilled in the art. […] (2) Cell invasion: Transwell invasion assay was carried out on HBE, A549 and H1299 cells treated with or without methyl aurintricarboxylate (final concentration 20 μg/mL).

A549 cells [10] = assay: Transwell invasion assay; assay type: cell-based; conditions: A549, 20 μg/mL, vs blank control
Procedure: as §5

H1299 cells [11] = assay: Agar colony formation assay; assay type: cell-based; conditions: H1299, 20 μg/mL
Procedure: as §5, with “(4)” for “(2)”, “colony formation: Agar colony formation” for “invasion: Transwell invasion”, “on” for “on HBE,”, “cells that were untreated and” for “cells”, “with” for “with or without”

A549 cells [12] = assay: Agar colony formation assay; assay type: cell-based; conditions: A549, 20 μg/mL
Procedure: as §5, with “(4)” for “(2)”, “colony formation: Agar colony formation” for “invasion: Transwell invasion”, “on” for “on HBE,”, “cells that were untreated and” for “cells”, “with” for “with or without”

[13] = test system: ES-2 human ovarian cancer cell line; assay: Apoptosis by Annexin V flow cytometry assay; assay type: cell-based
Procedure: (§6) Apoptosis assay was carried out using human normal fibroblasts (primary culture) as normal controls and ES-2 human ovarian cancer cell line as cancer cells. […] (c) Apoptosis was tested by Annexin V flow cytometry assay. In the figure, cells in the area Q1 are non-apoptotic cells, cells in the area Q3 are early apoptotic (the key area for observing apoptosis), and cells in the area Q2 are late apoptotic, including some necrotic cells.

[14] = test system: human normal fibroblasts (primary culture); assay: Apoptosis by Annexin V flow cytometry assay; assay type: cell-based; conditions: 20 μg/mL to 50 μg/mL, 48 h
Procedure: as §6

H1299 cells [15] = assay: Transwell migration assay; assay type: cell-based; conditions: H1299, 20 μg/mL, vs blank control
Procedure: as §4

A549 cells [16] = assay: Transwell migration assay; assay type: cell-based; conditions: A549, 20 μg/mL, vs blank control
Procedure: as §4

H1299 cells [17] = assay: Cell apoptosis, Annexin V labelling; assay type: cell-based; conditions: H1299, 10, 20, 40 μg/mL, increases with concentration
Procedure: as §2

A549 cells [18] = assay: Cell apoptosis, Annexin V labelling; assay type: cell-based; conditions: A549, 10, 20, 40 μg/mL, increases with concentration
Procedure: as §2

COC(=O)C[C@](O)(CCC(C)(C)O)C(=O)O[C@@H]1C(OC)=C[C@]23CCCN2CCc2cc4c(cc2[C@H]13)OCO4 [Harringtonin]
polysome profile (OD260 nm peaks of 40S, 60S, 1× and polysomes) (ribosomes): peak of 1× ribosomes is very high

N.N.[Cl][Pt][Cl] [cisplatin]
inhibition of lung cancer A549 cells (lung cancer A549 cells): 80-90%

CC(/C=C/C(C)=C/[C@@H]1Cc2nc(cs2)[C@@H](C)C[C@@H](N)CC(=O)O[C@@H](C)C/C(C)=C/C=C\C(=O)O1)=C\CN(C)C [Pateamine A]
polysome profile (OD260 nm peaks of 40S, 60S, 1× and polysomes) (ribosomes): peaks of 40S and 60S dominate

C[C@H]1C[C@@]2(O[C@H]3C[C@H]4[C@@H]5CC[C@H]6C[C@H](O)CC[C@]6(C)[C@H]5[C@@H](O)C[C@]4(C)[C@H]3[C@@]2(C)O)OC1(C)C [Hippuristanol]
cell invasion [1]: effectively reduce
cell migration [2]: effectively reduce
change in tumor diameter (A549 lung cancer cells): tumor shrink significantly
polysome profile (OD260 nm peaks of 40S, 60S, 1× and polysomes) (ribosomes): peaks of 40S and 60S dominate

C[C@H]1O[C@H](O[C@H]2[C@H](O)[C@@H](O)[C@@H](O)[C@H](O)[C@@H]2O)[C@@H](N)C[C@@H]1NC(=N)C(=O)O [Kasugamycin]
change in tumor diameter (H1299 lung cancer cells): tumor shrink significantly
cell proliferation [3]: slows down significantly from day 4
polysome profile (OD260 nm peaks of 40S, 60S, 1× and polysomes) (ribosomes): peaks of 40S and 60S dominate

O=C(O)C1=CC(=C(c2ccc(O)c(C(=O)O)c2)c2ccc(O)c(C(=O)O)c2)C=CC1=O [aurintricarboxylic acid]
onset concentration (apoptosis) [4]: 0.25 to 0.5 mg/mL

COC(=O)c1cc(/C(=C2/C=CC(=O)C(C(=O)O)=C2)c2ccc(O)c(C(=O)O)c2)ccc1O [methyl aurintricarboxylate, Methyl aurintricarboxylate]
inhibition of cell proliferation [5]: obvious inhibitory effect
inhibition of cell proliferation [6]: obvious inhibitory effect
cell migration (HBE cells [7]): little effect
cell apoptosis (HBE cells [8]): will not induce apoptosis
cell invasion (H1299 cells [9]): significantly inhibits the invasion ability
cell invasion (A549 cells [10]): significantly inhibits the invasion ability
number of colonies/1000 cells (H1299 cells [11]): significantly reduced
number of colonies/1000 cells (A549 cells [12]): significantly reduced
Percentage of late apoptotic and necrotic cells ([13]; 10 μg/mL, 48 h): 29.1%
late apoptotic+necrotic cells ([13]; 20 μg/mL or above, no obvious dose-effect relationship): do not increase significantly
Percentage of late apoptotic and necrotic cells ([13]; 20 μg/mL, 48 h): 17.2%
Percentage of late apoptotic and necrotic cells ([13]; 50 μg/mL, 48 h): 23.0%
Percentage of late apoptotic and necrotic cells ([13]; 120 μg/mL, 48 h): 22.6%
apoptosis ([13]; ES-2, 5 μg/mL, 48 h): significant effect on promoting apoptosis
early apoptosis ([13]; ES-2, 20 μg/mL, 48 h): 67.6%
apoptosis ([13]; ES-2, concentrations higher than 20 μg/mL, 48 h): almost all cells are completely apoptotic
effect on normal cell apoptosis [14]: basically no effect
cell migration (H1299 cells [15]): significantly inhibits the metastasis ability
cell migration (A549 cells [16]): significantly inhibits the metastasis ability
cell apoptosis (H1299 cells [17]): will induce apoptosis
cell apoptosis (A549 cells [18]): will induce apoptosis
